Measurements from PubChem BioAssay (NCI).
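A five-concentration, 48-hour dose response in 96-well plates underlies each endpoint, interpolated linearly between surrounding concentrations. Definition used: TGI = concentration required for complete inhibition of growth.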

Tests used:
Assay in all cases: DTP human tumour cell line panel, 48 h
SN12C renal = tested on: SN12C renal
OVCAR-5 ovarian = tested on: OVCAR-5 ovarian
TK-10 renal = tested on: TK-10 renal
SK-MEL-5 melanoma = tested on: SK-MEL-5 melanoma
786-0 renal = tested on: 786-0 renal
A498 renal = tested on: A498 renal
KM12 colon = tested on: KM12 colon
HOP-62 NSCLC = tested on: HOP-62 NSCLC
IGROV1 ovarian = tested on: IGROV1 ovarian
HT29 colon = tested on: HT29 colon
RXF 393 renal = tested on: RXF 393 renal
EKVX NSCLC = tested on: EKVX NSCLC
HCT-15 colon = tested on: HCT-15 colon
MOLT-4 leukemia = tested on: MOLT-4 leukemia
HOP-18 NSCLC = tested on: HOP-18 NSCLC
RXF-631 renal = tested on: RXF-631 renal
RPMI-8226 leukemia = tested on: RPMI-8226 leukemia
HOP-92 NSCLC = tested on: HOP-92 NSCLC
DMS 273 small cell lung = tested on: DMS 273 small cell lung
XF 498 CNS = tested on: XF 498 CNS
UACC-257 melanoma = tested on: UACC-257 melanoma
CCRF-CEM leukemia = tested on: CCRF-CEM leukemia
UO-31 renal = tested on: UO-31 renal
SF-268 CNS = tested on: SF-268 CNS
COLO 205 colon = tested on: COLO 205 colon
SF-539 CNS = tested on: SF-539 CNS
U251 CNS = tested on: U251 CNS
DMS 114 small cell lung = tested on: DMS 114 small cell lung
LOX IMVI melanoma = tested on: LOX IMVI melanoma
SK-OV-3 ovarian = tested on: SK-OV-3 ovarian
OVCAR-4 ovarian = tested on: OVCAR-4 ovarian
NCI-H23 lung = tested on: NCI-H23 lung
KM20L2 colon = tested on: KM20L2 colon
SNB-75 CNS = tested on: SNB-75 CNS
SF-295 CNS = tested on: SF-295 CNS
SK-MEL-2 melanoma = tested on: SK-MEL-2 melanoma
OVCAR-3 ovarian = tested on: OVCAR-3 ovarian
HL-60(TB) leukemia = tested on: HL-60(TB) leukemia
A549 NSCLC = tested on: A549 NSCLC
UACC-62 melanoma = tested on: UACC-62 melanoma
OVCAR-8 ovarian = tested on: OVCAR-8 ovarian
K-562 leukemia = tested on: K-562 leukemia
M14 melanoma = tested on: M14 melanoma
ACHN renal = tested on: ACHN renal
NCI-H460 lung = tested on: NCI-H460 lung
SK-MEL-28 melanoma = tested on: SK-MEL-28 melanoma
SNB-19 CNS = tested on: SNB-19 CNS
LXFL 529 NSCLC = tested on: LXFL 529 NSCLC
M19-MEL melanoma = tested on: M19-MEL melanoma
MALME-3M melanoma = tested on: MALME-3M melanoma
SW-620 colon = tested on: SW-620 colon
BT-549 breast = tested on: BT-549 breast
DLD-1 colon = tested on: DLD-1 colon
NCI-H522 lung = tested on: NCI-H522 lung
SR leukemia = tested on: SR leukemia
MDA-MB-231 breast = tested on: MDA-MB-231 breast
MDA-MB-435 = tested on: MDA-MB-435
HS 578T breast = tested on: HS 578T breast
MCF7 breast = tested on: MCF7 breast
MDA-N = tested on: MDA-N
PC-3 prostate = tested on: PC-3 prostate
DU-145 prostate = tested on: DU-145 prostate
HCT-116 colon = tested on: HCT-116 colon
NCI-H226 lung = tested on: NCI-H226 lung
CAKI-1 renal = tested on: CAKI-1 renal
NCI/ADR-RES ovarian = tested on: NCI/ADR-RES ovarian
HCC-2998 colon = tested on: HCC-2998 colon

Cc1ccc(S(=O)(=O)n2cc(/C=C/C#N)c(/C=C/C#N)c2)cc1
TGI (SN12C renal): > 100 µM | TGI (OVCAR-5 ovarian): > 100 µM | TGI (TK-10 renal): > 100 µM | TGI (SK-MEL-5 melanoma): > 100 µM | TGI (786-0 renal): > 100 µM | TGI (A498 renal): > 100 µM | TGI (KM12 colon): > 100 µM | TGI (HOP-62 NSCLC): > 100 µM | TGI (IGROV1 ovarian): > 100 µM | TGI (HT29 colon): > 100 µM | TGI (RXF 393 renal): > 100 µM | TGI (EKVX NSCLC): > 100 µM | TGI (HCT-15 colon): > 100 µM | TGI (MOLT-4 leukemia): > 100 µM | TGI (HOP-18 NSCLC): > 100 µM | TGI (RXF-631 renal): > 100 µM | TGI (RPMI-8226 leukemia): > 100 µM | TGI (HOP-92 NSCLC): 86.7 µM | TGI (DMS 273 small cell lung): > 100 µM | TGI (XF 498 CNS): > 100 µM | TGI (UACC-257 melanoma): > 100 µM | TGI (CCRF-CEM leukemia): > 100 µM | TGI (UO-31 renal): > 100 µM | TGI (SF-268 CNS): > 100 µM | TGI (COLO 205 colon): > 100 µM | TGI (SF-539 CNS): > 100 µM | TGI (U251 CNS): > 100 µM | TGI (DMS 114 small cell lung): > 100 µM | TGI (LOX IMVI melanoma): > 100 µM | TGI (SK-OV-3 ovarian): > 100 µM | TGI (OVCAR-4 ovarian): > 100 µM | TGI (NCI-H23 lung): > 100 µM | TGI (KM20L2 colon): > 100 µM | TGI (SNB-75 CNS): > 100 µM | TGI (SF-295 CNS): > 100 µM | TGI (SK-MEL-2 melanoma): > 100 µM | TGI (OVCAR-3 ovarian): > 100 µM | TGI (HL-60(TB) leukemia): > 100 µM | TGI (A549 NSCLC): > 100 µM | TGI (UACC-62 melanoma): > 100 µM | TGI (OVCAR-8 ovarian): > 100 µM | TGI (K-562 leukemia): > 100 µM | TGI (M14 melanoma): > 100 µM | TGI (ACHN renal): > 100 µM | TGI (NCI-H460 lung): > 100 µM | TGI (SK-MEL-28 melanoma): > 100 µM | TGI (SNB-19 CNS): > 100 µM | TGI (LXFL 529 NSCLC): > 100 µM | TGI (M19-MEL melanoma): > 100 µM | TGI (MALME-3M melanoma): > 100 µM | TGI (SW-620 colon): > 100 µM

N#CCC(=O)N/N=C(\CCN1CCCC1)CC(c1ccccc1)c1c(O)c2ccccc2oc1=O (stereo unspecified)
TGI (SN12C renal): > 100 µM | TGI (BT-549 breast): > 100 µM | TGI (OVCAR-5 ovarian): > 100 µM | TGI (TK-10 renal): > 100 µM | TGI (DLD-1 colon): > 100 µM | TGI (SK-MEL-5 melanoma): > 100 µM | TGI (786-0 renal): > 100 µM | TGI (A498 renal): > 85.5 µM | TGI (NCI-H522 lung): > 100 µM | TGI (KM12 colon): > 100 µM | TGI (HOP-62 NSCLC): > 100 µM | TGI (IGROV1 ovarian): > 100 µM | TGI (HT29 colon): > 100 µM | TGI (RXF 393 renal): > 100 µM | TGI (EKVX NSCLC): > 100 µM | TGI (HCT-15 colon): > 100 µM | TGI (SR leukemia): 69.8 µM | TGI (MOLT-4 leukemia): 61.5 µM | TGI (HOP-18 NSCLC): > 100 µM | TGI (MDA-MB-231 breast): > 100 µM | TGI (RXF-631 renal): > 100 µM | TGI (RPMI-8226 leukemia): > 92.8 µM | TGI (HOP-92 NSCLC): > 100 µM | TGI (MDA-MB-435): > 100 µM | TGI (XF 498 CNS): > 100 µM | TGI (UACC-257 melanoma): > 100 µM | TGI (HS 578T breast): > 100 µM | TGI (CCRF-CEM leukemia): > 94.8 µM | TGI (UO-31 renal): > 100 µM | TGI (MCF7 breast): 45.9 µM | TGI (SF-268 CNS): > 100 µM | TGI (COLO 205 colon): > 56.8 µM | TGI (MDA-N): > 100 µM | TGI (SF-539 CNS): > 100 µM | TGI (PC-3 prostate): > 100 µM | TGI (U251 CNS): > 100 µM | TGI (LOX IMVI melanoma): > 64.7 µM | TGI (DU-145 prostate): > 100 µM | TGI (SK-OV-3 ovarian): > 100 µM | TGI (OVCAR-4 ovarian): > 100 µM | TGI (NCI-H23 lung): > 100 µM | TGI (KM20L2 colon): > 100 µM | TGI (HCT-116 colon): > 100 µM | TGI (SNB-75 CNS): > 100 µM | TGI (SF-295 CNS): > 100 µM | TGI (SK-MEL-2 melanoma): > 100 µM | TGI (OVCAR-3 ovarian): > 100 µM | TGI (HL-60(TB) leukemia): 59.6 µM | TGI (A549 NSCLC): > 100 µM | TGI (UACC-62 melanoma): > 100 µM | TGI (OVCAR-8 ovarian): > 100 µM | TGI (K-562 leukemia): > 100 µM | TGI (M14 melanoma): > 100 µM | TGI (NCI-H226 lung): > 100 µM | TGI (ACHN renal): > 100 µM | TGI (CAKI-1 renal): > 100 µM | TGI (NCI-H460 lung): > 100 µM | TGI (SK-MEL-28 melanoma): > 100 µM | TGI (SNB-19 CNS): > 100 µM | TGI (NCI/ADR-RES ovarian): > 100 µM | TGI (LXFL 529 NSCLC): > 100 µM | TGI (M19-MEL melanoma): > 100 µM | TGI (MALME-3M melanoma): > 100 µM | TGI (SW-620 colon): > 100 µM | TGI (HCC-2998 colon): > 100 µM
